Measured values taken from ChEMBL document CHEMBL3046697, “Syntheses, antifeedant activity, and QSAR analysis of new oxa(thia)diazolyl 3(2H)-pyridazinones” (J Agric Food Chem, 2005).

Columns and labels:
Mythimna separata = assay: Antifeedant activity against second-instar larvae of Mythimna separata (Oriental armyworm) in compound treated leaves assessed as growth inhibition measured after 5 days by chronic growth bioassay; type: functional, organism-based; conditions: 120 h
[1] = Hydrophobicity, log P of the compound; type: physicochemical; conditions: octanol/water

Compound: Cc1cccc(-c2nnc(COc3cnn(C(C)(C)C)c(=O)c3Cl)s2)c1
- EC50 (Mythimna separata; read-out: EC50): > 300 µg/mL
- EC50 (Mythimna separata; read-out: pEC50 (converted)): > 300 µM

Compound: CC(C)(C)n1ncc(SCc2nnc(-c3ccc([N+](=O)[O-])cc3)o2)c(Cl)c1=O
- EC50 (Mythimna separata; read-out: EC50): > 300 µg/mL
- EC50 (Mythimna separata; read-out: pEC50 (converted)): > 300 µM

Compound: CC(C)(C)n1ncc(OCc2nnc(-c3cc(F)c(Cl)cc3Cl)s2)c(Cl)c1=O
- EC50 (Mythimna separata; read-out: EC50): 67.1 µg/mL
- EC50 (Mythimna separata; read-out: pEC50 (converted)): 67.1 µM

Compound: CC(C)(C)n1ncc(OCc2nnc(-c3cc(F)c(F)c(F)c3F)o2)c(Cl)c1=O
- logP [1]: 3.18
- EC50 (Mythimna separata; read-out: EC50): 241 µg/mL
- EC50 (Mythimna separata; read-out: pEC50 (converted)): 240 µM

Compound: CCCCn1ncc(OCc2nnc(-c3ccc(Cl)cc3)o2)c(Cl)c1=O
- EC50 (Mythimna separata; read-out: EC50): 224 µg/mL
- EC50 (Mythimna separata; read-out: pEC50 (converted)): 223 µM

Compound: CCCCn1ncc(OCc2nnc(-c3ccc(F)cc3)o2)c(Cl)c1=O
- EC50 (Mythimna separata; read-out: EC50): 162 µg/mL
- EC50 (Mythimna separata; read-out: pEC50 (converted)): 161 µM

Compound: CC(C)(C)n1ncc(OCc2nnc(-c3cccs3)o2)c(Cl)c1=O
- EC50 (Mythimna separata; read-out: EC50): > 300 µg/mL
- EC50 (Mythimna separata; read-out: pEC50 (converted)): > 300 µM

Compound: Cc1cccc(-c2nnc(CSc3cnn(C(C)(C)C)c(=O)c3Cl)o2)c1
- EC50 (Mythimna separata; read-out: EC50): > 300 µg/mL
- EC50 (Mythimna separata; read-out: pEC50 (converted)): > 300 µM

Compound: CC(C)(C)n1ncc(OCc2nnc(-c3ccccc3F)s2)c(Cl)c1=O
- EC50 (Mythimna separata; read-out: EC50): 121 µg/mL
- EC50 (Mythimna separata; read-out: pEC50 (converted)): 121 µM

Compound: CC(C)(C)n1ncc(SCc2nnc(-c3cccc(F)c3)o2)c(Cl)c1=O
- EC50 (Mythimna separata; read-out: EC50): 243 µg/mL
- EC50 (Mythimna separata; read-out: pEC50 (converted)): 243 µM

Compound: CC(C)(C)n1ncc(OCc2nnc(-c3cccc(F)c3)o2)c(Cl)c1=O
- logP [1]: 2.69
- EC50 (Mythimna separata; read-out: EC50): 7.1 µg/mL
- EC50 (Mythimna separata; read-out: pEC50 (converted)): 7.1 µM

Compound: CC(C)(C)n1ncc(SCc2nnc(-c3ccc(F)cc3)o2)c(Cl)c1=O
- EC50 (Mythimna separata; read-out: EC50): 150 µg/mL
- EC50 (Mythimna separata; read-out: pEC50 (converted)): 151 µM

Compound: COc1ccc(-c2nnc(COc3cnn(C(C)(C)C)c(=O)c3Cl)o2)cc1
- logP [1]: 3.52
- EC50 (Mythimna separata; read-out: EC50): 17.7 µg/mL
- EC50 (Mythimna separata; read-out: pEC50 (converted)): 17.7 µM

Compound: CC(C)(C)n1ncc(OCc2nnc(-c3ccc(Cl)cc3)s2)c(Cl)c1=O
- EC50 (Mythimna separata; read-out: EC50): 106 µg/mL
- EC50 (Mythimna separata; read-out: pEC50 (converted)): 106 µM

Compound: CC(C)(C)n1ncc(OCc2nnc(-c3ccc(Cl)cc3Cl)s2)c(Cl)c1=O
- EC50 (Mythimna separata; read-out: EC50): 62.2 µg/mL
- EC50 (Mythimna separata; read-out: pEC50 (converted)): 62.2 µM

Compound: CC(C)(C)n1ncc(OCc2nnc(-c3ccc(F)cc3)s2)c(Cl)c1=O
- EC50 (Mythimna separata; read-out: EC50): 21.5 µg/mL
- EC50 (Mythimna separata; read-out: pEC50 (converted)): 21.5 µM

Compound: Cc1ccc(-c2nnc(COc3cnn(C(C)(C)C)c(=O)c3Cl)o2)cc1
- logP [1]: 3.01
- EC50 (Mythimna separata; read-out: EC50): 19.9 µg/mL
- EC50 (Mythimna separata; read-out: pEC50 (converted)): 19.9 µM

Compound: CC(C)(C)n1ncc(OCc2nnc(-c3ccc(C(F)(F)F)cc3)o2)c(Cl)c1=O
- logP [1]: 3.66
- EC50 (Mythimna separata; read-out: EC50): 34.1 µg/mL
- EC50 (Mythimna separata; read-out: pEC50 (converted)): 33.8 µM

Compound: CC(C)(C)n1ncc(OCc2nnc(-c3ccc(F)cc3)o2)c(Cl)c1=O
- logP [1]: 2.69
- EC50 (Mythimna separata; read-out: EC50): 5.2 µg/mL
- EC50 (Mythimna separata; read-out: pEC50 (converted)): 5.2 µM

Compound: CC(C)(C)n1ncc(OCc2nnc(-c3ccccc3Cl)o2)c(Cl)c1=O
- logP [1]: 3.19
- EC50 (Mythimna separata; read-out: EC50): 61.2 µg/mL
- EC50 (Mythimna separata; read-out: pEC50 (converted)): 61.2 µM

Compound: CC(C)(C)n1ncc(OCc2nnc(-c3ccccc3)s2)c(Cl)c1=O
- EC50 (Mythimna separata; read-out: EC50): 200 µg/mL
- EC50 (Mythimna separata; read-out: pEC50 (converted)): 200 µM

Compound: Cc1cccc(-c2nnc(COc3cnn(C(C)(C)C)c(=O)c3Cl)o2)c1
- logP [1]: 3.02
- EC50 (Mythimna separata; read-out: EC50): 116 µg/mL
- EC50 (Mythimna separata; read-out: pEC50 (converted)): 116 µM

Compound: CC(C)(C)n1ncc(OCc2nnc(-c3c(F)cccc3F)o2)c(Cl)c1=O
- logP [1]: 2.75
- EC50 (Mythimna separata; read-out: EC50): 45.4 µg/mL
- EC50 (Mythimna separata; read-out: pEC50 (converted)): 45.4 µM

Compound: CCc1ccc(-c2nnc(COc3cnn(C(C)(C)C)c(=O)c3Cl)o2)cc1
- logP [1]: 3.52
- EC50 (Mythimna separata; read-out: EC50): 14.5 µg/mL
- EC50 (Mythimna separata; read-out: pEC50 (converted)): 14.5 µM
